The text below walks through data of ChEMBL document CHEMBL4428111, “Antiplasmodial activity of alkyl-substituted 1,2-dioxetanes against Plasmodium falciparum” (Bioorg Med Chem Lett, 2016).

Values after ≈ are worked out from the molar mass of the structure shown.

Series [1] has as its system Plasmodium falciparum. The series is described as follows: Antiplasmodial activity against chloroquine-resistant/mefloquine-sensitive Plasmodium falciparum W2 schizonts infected in human erythrocytes assessed as parasite invasion after 24 hrs by Diff-Quick staining based microscopic analysis (reference value: 15.26 +/- 2.13%). In kind it is functional.
In series [2] the test system is Plasmodium falciparum. Description: Antiplasmodial activity against chloroquine-resistant/mefloquine-sensitive Plasmodium falciparum W2 schizonts infected in human erythrocytes assessed as inhibition of parasite invasion at 10^-6 mol/L after 24 hrs by Diff-Quick staining based microscopic analysis relative to control. In kind it is functional. Conditions: W2, 24 h.

The test system of series [3] is Plasmodium falciparum. The series is described as follows: Antiplasmodial activity against chloroquine-resistant/mefloquine-sensitive Plasmodium falciparum W2 schizonts infected in human erythrocytes assessed as inhibition of parasite invasion after 24 hrs by Diff-Quick staining based microscopic analysis. In kind it is functional, organism-based. Conditions: W2, 24 h.

For series [4], the system named is Plasmodium falciparum. Description: Antiplasmodial activity against chloroquine-resistant/mefloquine-sensitive Plasmodium falciparum W2 schizonts infected in human erythrocytes assessed as inhibition of parasite invasion at 10^-10 mol/L after 24 hrs by Diff-Quick staining based microscopic analysis relative to control. In kind it is functional. Conditions: W2, 24 h.

The test system of series [5] is Plasmodium falciparum. Description: Antiplasmodial activity against chloroquine-resistant/mefloquine-sensitive Plasmodium falciparum W2 schizonts infected in human erythrocytes assessed as inhibition of parasite invasion at 10^-11 mol/L after 24 hrs by Diff-Quick staining based microscopic analysis relative to control. In kind it is functional. Conditions: W2, 24 h.

Series [6] has as its system Plasmodium falciparum. Description: Antiplasmodial activity against chloroquine-resistant/mefloquine-sensitive Plasmodium falciparum W2 schizonts infected in human erythrocytes assessed as inhibition of parasite invasion at 10^-9 mol/L after 24 hrs by Diff-Quick staining based microscopic analysis relative to control. In kind it is functional. Conditions: W2, 24 h.
Series [7] relates to Erythrocyte. The series is described as follows: Hemolytic activity against human RBC assessed as reduction in hemoglobin release at 10^-8 M after 24 hrs by spectrophotometric method relative to control. Further details: scale not given: the % may be the effect or the level left. Conditions: 0.01 µM. In kind it is ADME, cell-based.
For series [8], the system named is Plasmodium falciparum. Description: Antiplasmodial activity against chloroquine-resistant/mefloquine-sensitive Plasmodium falciparum W2 schizonts infected in human erythrocytes assessed as inhibition of parasite invasion after 24 hrs by Diff-Quick staining based microscopic analysis relative to artemisinin. In kind it is functional.
The test system of series [9] is Plasmodium falciparum. The series is described as follows: Antiplasmodial activity against chloroquine-resistant/mefloquine-sensitive Plasmodium falciparum W2 schizonts infected in human erythrocytes assessed as inhibition of parasite invasion at 10^-14 mol/L after 24 hrs by Diff-Quick staining based microscopic analysis relative to control. In kind it is functional. Conditions: W2, 24 h.

Series [10] deals with Erythrocyte. The series is described as follows: Hemolytic activity against human RBC assessed as reduction in hemoglobin release after 24 hrs by spectrophotometric method. In kind it is ADME, cell-based.
Series [11] concerns Plasmodium falciparum. The series is described as follows: Antiplasmodial activity against chloroquine-resistant/mefloquine-sensitive Plasmodium falciparum W2 schizonts infected in human erythrocytes assessed as inhibition of parasite invasion at 10^-12 mol/L after 24 hrs by Diff-Quick staining based microscopic analysis relative to control. In kind it is functional. Conditions: W2, 24 h.

In series [12] the test system is Plasmodium falciparum. The series is described as follows: Antiplasmodial activity against chloroquine-resistant/mefloquine-sensitive Plasmodium falciparum W2 schizonts infected in human erythrocytes assessed as inhibition of parasite invasion at 10^-8 mol/L after 24 hrs by Diff-Quick staining based microscopic analysis relative to control. In kind it is functional. Conditions: W2, 24 h.

In series [13] the test system is Plasmodium falciparum. The series is described as follows: Antiplasmodial activity against chloroquine-resistant/mefloquine-sensitive Plasmodium falciparum W2 schizonts infected in human erythrocytes assessed as inhibition of parasite invasion at 10^-5 mol/L after 24 hrs by Diff-Quick staining based microscopic analysis relative to control. In kind it is functional. Conditions: W2, 24 h.

Series [14] relates to Plasmodium falciparum. The series is described as follows: Antiplasmodial activity against chloroquine-resistant/mefloquine-sensitive Plasmodium falciparum W2 schizonts infected in human erythrocytes assessed as inhibition of parasite invasion at 10^-7 mol/L after 24 hrs by Diff-Quick staining based microscopic analysis relative to control. Conditions: W2, 24 h. In kind it is functional.

Series [15] can be described thus: Therapeutic index, ratio of MHC for human RBC to MIC for chloroquine-resistant/mefloquine-sensitive Plasmodium falciparum W2 schizonts infected in human erythrocytes. In kind it is toxicity, cell-based. Conditions: read-out: TI.
Series [16] relates to Plasmodium falciparum. The series is described as follows: Antiplasmodial activity against chloroquine-resistant/mefloquine-sensitive Plasmodium falciparum W2 schizonts infected in human erythrocytes assessed as inhibition of parasite invasion at 10^-4 mol/L after 24 hrs by Diff-Quick staining based microscopic analysis relative to control. In kind it is functional. Conditions: W2, 24 h.

As to `C1C2CC3CC1CC(C2)C31OOC12C1CC3CC(C1)CC2C3` (configuration not stated), the values for the Activity in the series on Plasmodium falciparum [1] and in the series with Erythrocyte [7] were 6.01% and 2%, respectively. Also, the inhibition (as a rule, the drop in the measured response relative to a control, in per cent) at 1 µM in the series with Plasmodium falciparum [2] is 65.6 to 67%. Moreover, in the series with Plasmodium falciparum [3], the half-maximal inhibitory concentration (IC50) – broadly, the concentration at which inhibition is half-maximal – worked out at 0.19 nM. Moreover, the inhibition at 0.0001 µM in the series with Plasmodium falciparum [4] lay within 36.2 to 38.8%. For the same compound, in the series with Plasmodium falciparum [5], the inhibition at 10 pM was 24.6 to 25.4%. For the same compound, the inhibition at 0.001 µM in the series on Plasmodium falciparum [6] was in the range of 53.4 to 54.4%. For the same compound, in the series with Plasmodium falciparum [8], the “fold change (FC)” value worked out at 105. In addition, in the series with Plasmodium falciparum [9], the inhibition at 10 fM fell in the range of 16.7 to 18.4%. Besides, the MHC in the series on Erythrocyte [10] came out at 1 ×10⁻⁶ M. The inhibition at 1 pM in the series on Plasmodium falciparum [11] fell in the range of 20.5 to 21.2%. Moreover, the inhibition at 0.01 µM in the series on Plasmodium falciparum [12] was 64 to 65.8%.

As for `CC1(C)OOC1(C)C`, the Activity in the series on Plasmodium falciparum [1] was 9.83%; in the series on Erythrocyte [7], 1.4%. For the same compound, the inhibition at 1 µM with Plasmodium falciparum [2] was 74.7 to 79.4%. Further, the IC50 in the series with Plasmodium falciparum [3] was determined as 45 nM. The minimal inhibitory concentration (MIC) (usually the lowest concentration found to suppress growth) with Plasmodium falciparum [3] is 0.001 nM (≈ 0.000116 ng/mL). The inhibition at 0.0001 µM with Plasmodium falciparum [4] was in the range of 23.4 to 25.6%. In addition, the inhibition at 10 µM in the series with Plasmodium falciparum [13] is 81 to 84%. The “fold change (FC)” value with Plasmodium falciparum [8] is on record as 0.45. In addition, in the series on Plasmodium falciparum [14], the inhibition at 0.1 µM was 60.2 to 60.3%. The selectivity ratio in series [15] came to 1e+07. Moreover, the MHC in the series on Erythrocyte [10] is 1 ×10⁻⁵ M. Also, the inhibition at 1 pM in the series on Plasmodium falciparum [11] lay within 16.7 to 17.4%. The inhibition at 0.01 µM in the series with Plasmodium falciparum [12] lay in the range of 35.6 to 36.3%.

Turning to `C[C@@H]1CC[C@H]2[C@@H](C)C(=O)O[C@@H]3O[C@@]4(C)CC[C@@H]1[C@]32OO4` [ARTEMISININ], the figures for the Activity in the series with Plasmodium falciparum [1] and in the series with Erythrocyte [7] were 5.58% and 1.5%, respectively. For the same compound, the inhibition at 1 µM in the series on Plasmodium falciparum [2] lay in the range of 99 to 100%. In the series on Plasmodium falciparum [3], the IC50 lay within 10 to 20 nM. For the same compound, the minimum inhibitory concentration (MIC) with Plasmodium falciparum [3] came out at 0.001 nM (≈ 0.000282 ng/mL). The inhibition at 0.0001 µM in the series with Plasmodium falciparum [4] was 43.1 to 48.7%. For the same compound, the inhibition at 0.001 µM with Plasmodium falciparum [6] fell in the range of 52.3 to 54%. The inhibition at 100 µM in the series with Plasmodium falciparum [16] amounted to 100%. In the series with Plasmodium falciparum [14], the inhibition at 0.1 µM is 82.2 to 85.4%. In the series with Erythrocyte [10], the MHC was 1 ×10⁻⁴ M. Besides, the inhibition at 1 pM in the series with Plasmodium falciparum [11] fell in the range of 38.5 to 40.6%. For the same compound, in the series with Plasmodium falciparum [12], the inhibition at 0.01 µM lay in the range of 63.4 to 67.4%.
